According to patent US20230331720A1, “MEDIUM- OR MACRO-CYCLIC BENZYL-SUBSTITUTED HETEROCYCLE DERIVATIVES AND THEIR USES AS OREXIN-2 RECEPTOR AGONISTS” (Orexia Therapeutics Limited, priority 2020, published 2023):

Biological target: T1, human orexin type 2 receptor (hOX2R) (Homo sapiens, UniProt O43614)
T1 construct: expressed in transfected cells
T1 sequence (O43614 1-444): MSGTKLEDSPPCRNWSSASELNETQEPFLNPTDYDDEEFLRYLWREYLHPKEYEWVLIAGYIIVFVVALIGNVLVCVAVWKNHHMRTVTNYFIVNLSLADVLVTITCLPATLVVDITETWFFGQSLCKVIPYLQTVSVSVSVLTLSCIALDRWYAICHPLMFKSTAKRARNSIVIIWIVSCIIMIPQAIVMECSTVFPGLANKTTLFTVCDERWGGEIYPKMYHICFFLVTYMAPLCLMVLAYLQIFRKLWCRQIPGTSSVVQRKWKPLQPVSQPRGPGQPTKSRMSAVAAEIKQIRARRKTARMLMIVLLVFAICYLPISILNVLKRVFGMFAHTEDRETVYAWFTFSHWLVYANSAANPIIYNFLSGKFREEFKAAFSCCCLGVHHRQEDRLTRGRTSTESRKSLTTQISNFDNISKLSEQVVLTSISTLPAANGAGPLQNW
Assay: Orexin type 2 receptor agonist activity, intracellular Ca2+ (FLIPR TETRA)
Type: cell-based
Conditions: CHO cells expressing hOX2R, Ca2+ fluorescence area; for EC50: read-out: hOx2 pEC50 (converted)
Procedure: Stable cell line generation. Obtainment of cells stably expressing either human orexin type 2 or human orexin type 1 receptor; to obtain a stable cell line the Orexin receptor cDNA was inserted into pcDNA3.1(+) plasmid vector and clones identified by G418 drug resistance selection. […] A single clone for OX2R-CHO and OX1R-CHO were grown in bulk and frozen to generate a cell bank for routine screening.
Measurement of orexin type 2 receptor agonist activity. Chinese hamster ovary (CHO) cells expressing human orexin type 2 receptor (hOX2R) or human orexin type 1 receptor (hOX1R) were seeded in each well of 384 well black clear bottom plates (BD Flacon) at 10,000 cells per well and cultured for 24 hr in an Ham's F12 (Gibco) medium containing 10% fetal calf serum (Sigma Aldrich) under the conditions of 37° C., 5% CO2. After removal of the medium, 50 μl of assay buffer 1 (0.1% bovine serum albumin (Sigma Aldrich), 20 mM HEPES (Molecular Dimensions), […] probenecid (Sigma Aldrich), 1× Calcium 5 dye (Molecular Devices) in Hank's balanced salt solution (Invitrogen)) was added, and the cells were incubated for 60 min under the conditions of 37° C., 5% CO2. A test compound was dissolved in dimethyl sulfoxide (Sigma Aldrich) to 10 mM, and then diluted with assay buffer 2 (20 mM HEPES, Hank's balanced salt solution, 0.1% bovine serum albumin). For the reaction, a test compound solution (10 μl) was added using Fluorescent Imaging Plate Reader TETRA (FLIPR TETRA: manufactured by Molecular Devices), a fluorescence value (excitation wavelength 488 nm, measurement wavelength 570 nm) of each well was measured every one second for 2 min, and the agonist activity was determined using the area of the fluorescence value as an indicator of intracellular Ca^2+ concentration. The agonist activity of the test compound was calculated assuming that the fluorescence value of the well added with only the dilution buffer was 0% and the fluorescence value of the well added with 10 nM human orexin A (Tocris) buffer was 100%. As used herein, Emax indicates the value at 10 μM concentration when orexin A is converted to a full agonist (maximum value of agonist activity: 100%).

SMILES | EC50 [nM] | hOx2 pEC50
CCS(=O)(=O)N[C@H]1CCN2C(=O)NCCCCCc3ccccc3-c3cccc(c3)C[C@@H]12 (single isomer, unassigned) [Compound A1-42, N-((4^2S,4^3S)-5-oxo-6-aza-4(2,1)-pyrrolidina-1(1,2),2(1,3)-dibenzenacycloundecaphane-4^3-yl)ethanesulfonamide] | 0.1 to 1 | 
CCS(=O)(=O)N[C@@H]1CCN2C(=O)NCCCCCc3ccccc3-c3cccc(c3)C[C@H]12 (single isomer, unassigned) [Compound A1-43, N-((4^2R,4^3R)-5-oxo-6-aza-4(2,1)-pyrrolidina-1(1,2),2(1,3)-dibenzenacycloundecaphane-4^3-yl)ethanesulfonamide] | 100 to 1000 | 
CCS(=O)(=O)N[C@H]1CCN2C(=O)NCCOc3ccccc3-c3cccc(c3)C[C@@H]12 [Compound A1-7, N-((4^2S,4^3S)-5-oxo-9-oxa-6-aza-4(2,1)-pyrrolidina-1-(1,2),2-(1,3)-dibenzenacyclo-nonaphane-4′-yl)ethanesulfonamide] | 10 to 100 | 
CCS(=O)(=O)NC1CCN2C(=O)OCCOc3ccccc3-c3cccc(c3)CC12 (stereo not shown) [Compound A1-22, N-(5-oxo-6,9-dioxa-4(2,1)-pyrrolidina-1(1,2),2(1.3)-dibenzenacyclo-nonaphane-4^3-yl)ethanesulfonamide] |  | ++ (7.0≤“++”<8.0)
CCS(=O)(=O)NC1CCN2C(=O)NCCCCCOc3ccccc3-c3cccc(c3)CC12 (stereo not shown) [Compound A1-23, N-(5-oxo-12-oxa-6-aza-4(2,1)-pyrrolidina-1(1,2),2(1,3)-dibenzenacyclo-dodecaphane-43-yl)ethanesulfonamide] |  | + (6.0≤“+”<7.0)
CS(=O)(=O)N[C@H]1CCCN2C(=O)OCCOc3ccccc3-c3cccc(c3)C[C@@H]12 [Compound A1-60] | 10 to 100 | 
CS(=O)(=O)N[C@H]1CCCN2C(=O)CCCOc3ccccc3-c3cccc(c3)C[C@@H]12 [Compound A1-64] | 10 to 100 | 
CCS(=O)(=O)NC1CCN2C(=O)N3CC[C@H]3COc3ccccc3-c3cccc(c3)CC12 (stereo partly shown) [Compound A1-65] | 10 to 100 | 
CS(=O)(=O)N[C@H]1CCN2C(=O)C(F)(F)CCCCCc3ccccc3-c3cccc(c3)C[C@@H]12 [Compound A1-66] | 10 to 100 | 
CCS(=O)(=O)N[C@H]1CCN2C(=O)N(C)CCOc3ccccc3-c3cccc(c3)C[C@@H]12 [Compound A1-71] | 10 to 100 | 
CS(=O)(=O)N[C@H]1CCCN2C(=O)NCCOc3ccccc3-c3cccc(c3F)C[C@@H]12 [Compound A1-73] | 1 to 10 | 
CN(C)S(=O)(=O)N[C@@H]1CCCN2C(=O)CCOc3ccccc3-c3cccc(c3)C[C@H]12 [Compound A1-75] | 10 to 100 | 
CN(C)S(=O)(=O)N[C@H]1CCCN2C(=O)OCCOc3ccccc3-c3cccc(c3)C[C@@H]12 [Compound A1-77] | 10 to 100 | 
CS(=O)(=O)N[C@H]1CCCN2C(=O)CCOc3ccccc3-c3cccc(c3)C[C@@H]12 [Compound A1-78, N-((4^2S,4^3S)-5-oxo-8-oxa-4(2,1)-piperidina-1(1,2),2(1,3)-dibenzenacyclo-octaphane-4^3-yl)methanesulfonamide] | 1 to 10 | 
CN(C)S(=O)(=O)N[C@H]1CCCN2C(=O)CCCc3ccccc3-c3cccc(c3)C[C@@H]12 [Compound A1-79] | 1 to 10 | 
O=C1CCOc2ccccc2-c2cccc(c2)C[C@H]2[C@@H](NS(=O)(=O)CF)CCCN12 [Compound A1-80] | 1 to 10 | 
O=C1CCOc2ccccc2-c2cccc(c2)C[C@H]2[C@@H](NS(=O)(=O)C3CC3)CCCN12 [Compound A1-84] | 0.1 to 1 | 
O=C1CCOc2ccccc2-c2cc(ccc2F)C[C@H]2[C@@H](NS(=O)(=O)CF)CCCN12 [Compound A1-87, 1-fluoro-N-((4^2S,4^3S)-26-fluoro-5-oxo-8-oxa-4(2,1)-piperidina-1(1,2),2(1,3)-dibenzenacyclooctaphane-4^3-yl)methanesulfonamide] | 1 to 10 | 
O=C1CCOc2c(F)cccc2-c2cccc(c2)C[C@H]2[C@@H](NS(=O)(=O)CF)CCCN12 [Compound A1-90, 1-fluoro-N-((4^2S,4^3S)-13-fluoro-5-oxo-8-oxa-4(2,1)-piperidina-1(1,2),2(1,3)-dibenzenacyclooctaphane-4^3-yl)methanesulfonamide] | 0.1 to 1 | 

More lines, main results first:

EC50 [nM] | SMILES | hOx2 pEC50
1 to 10 | CS(=O)(=O)N[C@@H]1CCCN2C(=O)NCCOc3ccccc3-c3cccc(c3)C[C@H]12 [Compound A1-3, N-((4^2R,4^3R)-5-oxo-9-oxa-6-aza-4(2,1)-piperidina-1(1,2),2(1,3)-dibenzenacyclo-nonaphane-4^3-yl)methanesulfonamide] | 
100 to 1000 | CS(=O)(=O)N[C@H]1CCCN2C(=O)NCCOc3ccccc3-c3cccc(c3)C[C@@H]12 [Compound A1-4, N-((4^2S,4^3S)-5-oxo-9-oxa-6-aza-4(2,1)-piperidina-1(1,2),2(1,3)-dibenzenacyclo-nonaphane-4^3-yl)methanesulfonamide] | 
0.1 to 1 | CCS(=O)(=O)N[C@H]1CCN2C(=O)N(C)CCCCCc3ccccc3-c3cccc(c3)C[C@@H]12 [Compound A1-10, N-((4^2S,4^3S)-6-methyl-5-oxo-6-aza-4(2,1)-pyrrolidina-1(1,2),2(1,3)-dibenzena-cycloundecaphane-4^3-yl)ethanesulfonamide] | 
10 to 100 | CS(=O)(=O)NC1CCCN2C(=O)CCCc3ccccc3-c3cccc(c3)CC12 (stereo not shown) [Compound A1-59] | 
10 to 100 | CN1CCOc2ccccc2-c2cccc(c2)C[C@H]2[C@@H](NS(C)(=O)=O)CCN2C1=O [Compound A1-61] | 
10 to 100 | CS(=O)(=O)NC1CCCN2C(=O)OCCOc3ccccc3-c3cccc(c3)CC12 (stereo not shown) [Compound A1-63] | 
10 to 100 | CS(=O)(=O)N[C@H]1CCCN2C(=O)CCCc3ccccc3-c3cccc(c3)C[C@@H]12 [Compound A1-67] | 
10 to 100 | CS(=O)(=O)N[C@H]1CCCN2C(=O)CCOc3ccccc3-c3cccc(c3)C[C@@H]12 [Compound A1-68] | 
1 to 10 | CCS(=O)(=O)N[C@H]1CCCN2C(=O)CCOc3ccccc3-c3cccc(c3)C[C@@H]12 [Compound A1-72] | 
10 to 100 | CCS(=O)(=O)N[C@H]1CCCN2C(=O)CCOc3ccccc3-c3cccc(c3)C[C@@H]12 [Compound A1-74, N-((4^2,4^3S)-5-oxo-8-oxa-4(2,1)-piperidina-1(1,2),2(1.3)-dibenzenacyclo-octaphane-4^3-yl)ethanesulfonamide] | 
1 to 10 | CN(C)S(=O)(=O)N[C@H]1CCCN2C(=O)CCOc3ccccc3-c3cccc(c3)C[C@@H]12 [Compound A1-76, N-((4^2S,4^3S)-5-oxo-8-oxa-4(2,1)-piperidina-1(1,2),2(1,3)-dibenzenacyclooctaphane-4^3-yl)-N,N-dimethylsulfuric diamide] | 
1 to 10 | CN1CCOc2ccccc2-c2cccc(c2)C[C@H]2[C@@H](NS(=O)(=O)N(C)C)[C@@H](F)CN2C1=O [Compound A1-81] | 
1 to 10 | CS(=O)(=O)N[C@H]1CCCN2C(=O)CCOc3ccccc3-c3cccc(c3F)C[C@@H]12 [Compound A1-82, N-((4^2S,4^3S)-22-fluoro-5-oxo-8-oxa-4(2.1)-piperidina-1(1,2),2(1.3)-dibenzenacyclooctaphane-4^3-yl)methanesulfonamide] | 
1 to 10 | COc1c2cccc1-c1ccccc1OCCC(=O)N1CCC[C@H](NS(C)(=O)=O)[C@@H]1C2 [Compound A1-83] | 
10 to 100 | C[C@H]1COc2ccccc2-c2cccc(c2)C[C@H]2[C@@H](NS(C)(=O)=O)CCCN2C1=O [Compound A1-85] | 
1 to 10 | COc1c2cccc1-c1ccccc1OCCN(C)C(=O)N1C[C@H](F)[C@H](NS(=O)(=O)CF)[C@@H]1C2 [Compound A1-86] | 
10 to 100 | COc1c2cccc1-c1ccccc1OCCNC(=O)N1C[C@H](F)[C@H](NS(=O)(=O)CF)[C@@H]1C2 [Compound A1-88] | 
10 to 100 | O=C1CCOc2cccc(F)c2-c2cccc(c2)C[C@H]2[C@@H](NS(=O)(=O)CF)CCCN12 [Compound A1-89, 1-fluoro-N-((4^2S,4^3S)-16-fluoro-5-oxo-8-oxa-4(2,1)-piperidina-1(1,2),2(1,3)-dibenzenacyclooctaphane-4^3-yl)methanesulfonamide] | 
